Each block holds one compound with its values, some of them ahead of it. Where a SMILES comes first, the peptide text is derived from it. Where no end group is shown, it is not given here. The star is where a group is joined. Biotin = O=C1N[C@H]2[C@H](CS[C@H]2CCCCC(=O)*)N1; Ahx = NCCCCCC(=O)O
Key:
[1] = system: cytoplasmic domain of syndecan-4 (SDC4cyt); experiment: ELISA-based assay, wells coated with MLP peptides, overlaid with biotin-SDC4cyt; format: binding, human; conditions: for biotinylated SDC4cyt binding to mutated MLP peptide compared with MLP-WT peptide: 10 µg 30-mer peptide coated, SDC4cyt normalized to SDC4scram, related to MLP-WT (100%), n = 16, Mann-Whitney U; for biotin-SDC4cyt binding to 30 amino acid-long overlapping MLP-WT peptides: 10 µg peptide coated, biotinylated peptide 2-5 µM, 2 h 37 °C, absorbance 450 nm, normalized to SDC4scram, n = 12-28
Description: (§1) 96-well ELISA microplates were coated with 10 µg of WT or mutated human 6xHis-MLP recombinant proteins or 10 µg of MLP peptides in PBS, and rotated at 4 °C overnight. Each well was rinsed with 0.05% Tween-20 in PBS (PBS-T) and blocked with 0.5% gelatin (G-1890, Sigma Merck, Darmstadt, Germany) for one hour at room temperature before incubation with the given biotinylated peptides at a final concentration of 2–5 µM for two hours at 37 °C with gentle agitation. Each well was then thoroughly washed with PBS-T five times before incubation with 100 µL of Biotin-HRP (A0185, Sigma Merck, Darmstadt, Germany) for 30 min at room temperature with gentle agitation. Each well was then washed with PBS-T 5 times before incubation with 100 µL of Ultra TMB substrate solution (34028, Thermo Fisher Scientific, Waltham, MA, USA) for 15–30 min at room temperature with gentle agitation to develop a blue color signal. The reaction was stopped with 100 µL of 2 M hydrochloric acid (HCl) per well (yellow color development). The absorbance of each well was read at 450 nm (Hidex sense multimodal microplate reader, Åbo, Finland).
We next aimed to identify the syndecan-4-MLP-binding domain(s). […]
Multiple human mutations in MLP are associated with hypertrophic cardiomyopathy (HCM) or dilated cardiomyopathy (DCM) (illustrated in Figure 2E). […] To test whether syndecan-4 binding to MLP was affected by any of the HCM- or DCM-associated mutations, we used an ELISA-based assay, where wells were coated with WT or mutated MLP peptide sequences.

recombinant 6xHis-MLP = experiment: ELISA-based MLP self-association assay, coated recombinant 6xHis-MLP overlaid with biotinylated MLP-WT peptides; format: binding, human; conditions: 10 µg protein coated; biotinylated peptide 2-5 µM; PBS-only wells subtracted; n = 8
Description: as §1
To more precisely map the sites of self-association in MLP, an ELISA-based screening method was used. Full-length recombinant 6xHis-MLP-WT protein was coated into wells and overlayed with biotinylated overlapping MLP-WT peptides, together representing the full-length MLP sequence. […] Furthermore, to test whether mutations could affect self-association, wells were instead coated with mutated recombinant 6xHis-MLP proteins and overlayed with the biotinylated MLP-WT peptides, mimicking a heterozygous interaction. Compared to the WT recombinant protein, MLP peptides aa 50–79 and 125–154 bound weaker to most of the mutated MLP recombinant proteins, except for the HCM-associated L44P (at aa 125–154) and C58G mutations (at aa 50–79 and […]) (Figure 5D, left and right panel). A larger increase in N- and C-terminal binding was also observed for C58G.

human MLP = experiment: Peptide array overlay of MLP 20-mers with biotinylated peptide; format: binding; conditions: 20-mers with 3 amino acid offset, overlay overnight at 4 °C, n = 3
Description: Human, rat, and mouse MLP were synthesized as overlapping 20-mers with three amino acid offsets onto cellulose membranes by an automated MultiPep peptide synthesizer (INTAVIS Bioanalytical instruments AG, Tübingen, Germany). After blocking, membranes were incubated with a biotin-ahx-SDC4cyt (SDC4cyt) peptide, a scrambled biotin-ahx-SDC4cyt (SDC4scram), a custom-made MLP antibody (#R06991, GenScript Biotech Corp, Piscataway, NJ, USA), or a commercially available MLP antibody (sc-166930, Santa Cruz, Dallas, TX, USA) overnight at 4 °C. The remaining consequent steps were identical to those performed for immunoblotting, as described further below.
We next aimed to identify the syndecan-4-MLP-binding domain(s). A biotinylated peptide covering the cytoplasmic domain of syndecan-4 (SDC4cyt) was overlaid onto 20’mer overlapping peptides covering the full length of human MLP.

recombinant 6xHis-MLP-WT = target: T1, recombinant 6xHis-MLP-WT (Homo sapiens, UniProt P50461); experiment: Biacore surface plasmon resonance of SDC4cyt and MLP; format: binding; conditions: SPR, biotin-ahx-SDC4cyt immobilized on SA chip, 6xHis-MLP-WT injected, 1:1 Langmuir fit, n = 4
T1 construct: All MLP recombinant proteins were full length and had 6xHis tags at the N-terminus; purchased GenScript Biotech Corp
T1 sequence (P50461 1-194): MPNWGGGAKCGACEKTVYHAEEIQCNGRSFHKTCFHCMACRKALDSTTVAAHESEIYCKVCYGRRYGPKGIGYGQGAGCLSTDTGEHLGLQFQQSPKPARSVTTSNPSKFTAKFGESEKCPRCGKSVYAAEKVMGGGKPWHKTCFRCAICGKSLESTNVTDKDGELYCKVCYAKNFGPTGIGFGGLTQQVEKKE
Description: A streptavidin (SA) chip (BR1000032, Cytiva, Marlborough, MA, USA) was conditioned with three 1 min injections of 1 × Biacore running buffer (BR100826, Cytiva, Marlborough, MA, USA), and biotinylated SDC4cyt was immobilized at 133–350 resonance units (RUs). Recombinant 6xHis-MLP-WT was dialyzed into 1 × Biacore running buffer, and increasing concentrations were injected over the chip’s surface at a flow rate of 30 µL per minute for 180 s. For the different runs, concentration ranges spanned 2.9–14.6 nM, 1.2–100 nM, and 21.2–500 nM. The dissociation time was set to 600 s. Sensorgrams were analyzed using the Biacore X100 software (Version 2.0.1) with the assumption of 1:1 binding (Langmuir binding model).
The binding of SDC4cyt and MLP was further investigated with surface plasmon resonance (SPR), where a biotinylated SDC4cyt peptide was immobilized on an SA chip, and a serial dilution of recombinant 6xHis-MLP-WT protein was injected over the chip. The results were analyzed by fitting with a 1:1 interaction model (Langmuir). The dissociation equilibrium constant (kD) was 15.6 ± 7.8 nM, with an association constant (ka) of (8.7 ± 1.4) × 10^4 M^−1 s^−1 and a dissociation rate constant (kd) of (12.2 ± 5.3) × 10^−4 s^−1, indicating a strong interaction (Figure 2D). […]

- biotinylated SDC4cyt binding to mutated MLP peptide compared with MLP-WT peptide [1]: significantly weaker
Compound: CNGRSFHKTCFHCMACRKALDRTTVAAHES [MLP-S46R, 30-mer human MLP peptide with S46R mutation]

- biotin-SDC4cyt binding to 30 amino acid-long overlapping MLP-WT peptides [1]: binding was confirmed
- binding of biotinylated MLP-WT peptide to full-length recombinant 6xHis-MLP-WT (self-association) (recombinant 6xHis-MLP): strongest binding
Compound: MLP-WT peptide aa 50–79: 30 amino acid-long overlapping MLP-WT peptide, amino acids 50–79, with or without N-terminal biotin (AAHESEIYCKVCYGRRYGPKGIGYGQGAGC)

- biotin-SDC4cyt binding to 30 amino acid-long overlapping MLP-WT peptides [1]: binding was confirmed
Compound: MLP-WT peptide aa 25–54: 30 amino acid-long overlapping MLP-WT peptide, amino acids 25–54 (CNGRSFHKTCFHCMACRKALDSTTVAAHES)

- biotinylated SDC4cyt binding to mutated MLP peptide compared with MLP-WT peptide [1]: tendency of reduced binding
Compound: AAHESEIYCKVCYGRRYGPKGIRYGQGAGC [MLP-G72R, 30-mer human MLP peptide with G72R mutation]

- biotinylated SDC4cyt binding to mutated MLP peptide compared with MLP-WT peptide [1]: tendency of reduced binding
Compound: AAHESEIYCKVCYGCRYGPKGIGYGQGAGC [MLP-R64C, 30-mer human MLP peptide with R64C mutation]

- binding to 20-mer overlapping human MLP peptides on membrane (human MLP): did not recognize any human MLP sequence
Compound: GTKYPKMDRGKLFKYKAKPEDNESAYIK [SDC4scram]

- biotin-SDC4cyt binding to 30 amino acid-long overlapping MLP-WT peptides [1]: binding was confirmed
- binding of biotinylated MLP-WT peptide to full-length recombinant 6xHis-MLP-WT (self-association) (recombinant 6xHis-MLP): Minimal binding
Compound: MLP-WT peptide aa 100–129: 30 amino acid-long overlapping MLP-WT peptide, amino acids 100–129, with or without N-terminal biotin (RSVTTSNPSKFTAKFGESEKCPRCGKSVYA)

Compound: AAHERGIYCKVCYGRRYGPKGIGYGQGAGC [MLP-S54R,E55G, 30-mer human MLP peptide with S54R,E55G mutation]
- biotinylated SDC4cyt binding to mutated MLP peptide compared with MLP-WT peptide [1]: significantly weaker

- biotin-SDC4cyt binding to 30 amino acid-long overlapping MLP-WT peptides [1]: binding was confirmed
- binding of biotinylated MLP-WT peptide to full-length recombinant 6xHis-MLP-WT (self-association) (recombinant 6xHis-MLP): strongest binding
Compound: MLP-WT peptide aa 125–154: 30 amino acid-long overlapping MLP-WT peptide, amino acids 125–154, with or without N-terminal biotin

- kon (recombinant 6xHis-MLP-WT; read-out: association constant (ka)): 87000 M⁻¹ s⁻¹
- koff (recombinant 6xHis-MLP-WT; read-out: dissociation rate constant (kd)): 0.00122 s⁻¹
Compound: CC[C@H](C)[C@H](NC(=O)[C@@H]1CCCN1C(=O)[C@H](CCCCN)NC(=O)[C@H](CCCCN)NC(=O)CNC(=O)[C@H](CC(C)C)NC(=O)[C@H](CC(=O)O)NC(=O)[C@H](Cc1ccc(O)cc1)NC(=O)[C@H](CO)NC(=O)CNC(=O)[C@H](CCC(=O)O)NC(=O)[C@H](CC(=O)O)NC(=O)[C@H](CCCCN)NC(=O)[C@H](CCCCN)NC(=O)[C@H](CCCCN)NC(=O)[C@H](CCSC)NC(=O)[C@H](CCCNC(=N)N)NC(=O)CCCCCNC(=O)CCCC[C@@H]1SC[C@@H]2NC(=O)N[C@@H]21)C(=O)N[C@@H](Cc1ccc(O)cc1)C(=O)N[C@@H](CCCCN)C(=O)N[C@@H](CCCCN)C(=O)N[C@@H](C)C(=O)N1CCC[C@H]1C(=O)N[C@H](C(=O)N[C@@H](CC(N)=O)C(=O)N[C@@H](CCC(=O)O)C(=O)N[C@@H](Cc1ccccc1)C(=O)N[C@@H](Cc1ccc(O)cc1)C(=O)N[C@@H](C)C(=O)O)[C@@H](C)O [SDC4cyt] ({Biotin-Ahx}-RMKKKDEGSYDLGKKPIYKKAPTNEFYA-OH)

- binding of biotinylated MLP-WT peptide to full-length recombinant 6xHis-MLP-WT (self-association) (recombinant 6xHis-MLP): Minimal binding
Compound: MLP-WT peptide aa 165–194: biotinylated 30-mer MLP-WT peptide, amino acids 165–194 (Biotin-ELYCKVCYAKNFGPTGIGFGGLTQQVEKKE; cysteine pairing not given here)

- biotinylated SDC4cyt binding to mutated MLP peptide compared with MLP-WT peptide [1]: tendency of reduced binding
Compound: AAHESEIYCKVCYGRRYGPRGIGYGQGAGC [MLP-K69R, 30-mer human MLP peptide with K69R mutation]

- biotinylated SDC4cyt binding to mutated MLP peptide compared with MLP-WT peptide [1]: significantly weaker
Compound: CNGRSFHKTCFHCMACRKAPDSTTVAAHES [MLP-L44P, 30-mer human MLP peptide with L44P mutation]

- biotinylated SDC4cyt binding to mutated MLP peptide compared with MLP-WT peptide [1]: did not alter the binding
Compound: MPNRGGGAKCGACEKTVYHAEEIQCNGRSF [MLP-W4R, 30-mer human MLP peptide with W4R mutation]
